The test concerns Sal-conjugated peptide-streptavidin complex. Kind of test: Competitive binding assay with biotin (fluorescence polarization). Conditions: various concentrations of biotin; 20 nM peptide (4 pmol) and 15 μM streptavidin (3 nmol); 50 mM Tris-HCl, pH 8.0, 150 mM NaCl, 1 mM TCEP-NaOH. For orientation: Fluorescence polarisation rises when a labelled molecule tumbles more slowly, as on binding a larger partner.

Method: (B) Competitive binding assay. Biotin as a competitor was mixed with the Sal-conjugated peptide-streptavidin complex.
Fluorescence polarization was measured with a HYBRID-3000ES (Photoscience, Tokyo, Japan) equipped with appropriate filters (Ex. 480 nm and Em. 535/40 nm). The Sal-conjugated fluorescent peptide (4 pmol) was incubated with various concentrations of streptavidin, NeutrAvidin, or bovine serum albumin (BSA) in tris-buffered saline (50 mM Tris-HCl, pH 8.0, 150 mM NaCl) supplemented with 1 mM TCEP-NaOH at 30 °C. Concentration of the fluorescent peptide was determined by absorption coefficient at 495 nm. NeutrAvidin® and BSA were purchased from Thermo Scientific and Nacalai tesque, respectively. Concentrations of streptavidin and NeutrAvidin were determined by absorption coefficient at 280 nm. Concentration of BSA was determined by Bradford protein assay (Bio-Rad). Klotz plot was generated by GraphPad Prism software 6.0 (GraphPad Software, San Diego, CA, USA), and the sigmoid curve was fitted with non-linear least squares analysis to obtain the dissociation constant. […] For the competitive binding assay, various concentrations of biotin were added to the solution containing Sal-conjugated peptide-streptavidin complex (4 pmol of the peptide and 3 nmol of streptavidin; 20 nM and 15 μM, respectively). Biotin was purchased from New England Biolabs (Ipswich, MA, USA).

`O=C(O)CCCC[C@@H]1SC[C@@H]2NC(=O)N[C@@H]21` [biotin]: the “disruption of Sal-conjugated peptide-streptavidin interaction by biotin” value is given as “fully disrupted”.

(Values after paper PMC6271298, “Pharmacophore Generation from a Drug-like Core Molecule Surrounded by a Library Peptide via the 10BASEd-T on Bacteriophage T7” (Molecules, 2014).)
